28 compounds from patent US20260176267A1, “PREPARATION OF IMIDAZOPYRIDINE AND IMIDAZOPYRIDAZINE DERIVATIVES AS NOVEL DIACYLGLYCERIDE O-ACYLTRANSFERASE 2 INHIBITORS” (Merck Sharp & Dohme LLC, priority 2022, published 2026) can be followed below.

The structures appear in SMILES notation.

This experiment addresses T1, human DGAT2 (hDGAT2) (Homo sapiens, UniProt Q96PD7).
T1 construct: made in house; host or cells: Sf-9 insect cells (baculovirus), membrane fraction
T1 sequence (Q96PD7 1-388): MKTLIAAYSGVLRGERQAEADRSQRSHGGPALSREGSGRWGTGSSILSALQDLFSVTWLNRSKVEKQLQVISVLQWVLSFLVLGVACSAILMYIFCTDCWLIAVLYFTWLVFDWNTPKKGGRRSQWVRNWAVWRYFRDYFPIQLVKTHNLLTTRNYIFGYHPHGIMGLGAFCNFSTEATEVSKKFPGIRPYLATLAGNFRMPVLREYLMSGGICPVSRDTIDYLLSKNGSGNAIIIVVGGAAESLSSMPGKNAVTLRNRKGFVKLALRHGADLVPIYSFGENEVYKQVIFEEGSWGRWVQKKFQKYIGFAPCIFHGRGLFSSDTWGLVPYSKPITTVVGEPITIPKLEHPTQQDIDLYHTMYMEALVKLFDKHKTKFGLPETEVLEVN
As to the kind of experiment: DGAT2 Enzymatic Activity Assay. Format: biochemical. Conditions: membrane prep of Sf-9 cells expressing hDGAT2; 13C18-triolein product by LC/MS/MS; 25 μM diolein, 5 μM 13C oleoyl-CoA, rt. The procedure, abridged:
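At room temperature, DGAT2 activity in baculovirus-infected Sf-9 membrane preps (human enzyme, untagged) is measured as formation of ^13C18-triolein. Product is extracted and measured by positive-mode LC/MS/MS, with the ratio to spiked ^13C21-triolein giving inhibition and IC50.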
`CCOc1cccnc1Oc1ccc2nc(C(=O)Nc3cccnc3)cn2c1` [Example 54, 6-[(3-ethoxy-2-pyridyl)oxy]-N-(3-pyridyl)imidazo[1,2-a]pyridine-2-carboxamide] had a half-inhibitory concentration (IC50) of 850 nM. With `CC1(NC(=O)c2nc3cc(Cl)c(Oc4ncc(Cl)cc4OCC(F)(F)F)nn3c2Cl)CS(=O)(=O)C1` [Example 179, 3,7-dichloro-6-[[5-chloro-3-(2,2,2-trifluoroethoxy)-2-pyridyl]oxy]-N-(3-methyl-1,1-dioxo-thietan-3-yl)imidazo[1,2-b]pyridazine-2-carboxamide] the figure was 101 nM; with `CC(C)c1c(Oc2ncc(Cl)cc2OCC(F)(F)F)ccc2nc(C(=O)NC3(C)CS(=O)(=O)C3)cn12` [Example 55, 6-[[5-chloro-3-(2,2,2-trifluoroethoxy)-2-pyridyl]oxy]-5-isopropyl-N-(3-methyl-1,1-dioxo-thietan-3-yl)imidazo[1,2-a]pyridine-2-carboxamide], 89 nM; with `CC(C)c1cc2nc(C(=O)NC3(C)CCS(=O)(=O)CC3)cn2cc1Oc1ncccc1OCC(F)(F)F` [Example 48, 7-isopropyl-N-(4-methyl-1,1-dioxo-thian-4-yl)-6-[[3-(2,2,2-trifluoroethoxy)-2-pyridyl]oxy]imidazo[1,2-a]pyridine-2-carboxamide], 59 nM.

Compound `Cc1c(C(=O)NC2(C)CCS(=O)(=O)CC2)nc2cc(C#N)c(Oc3ncc(Cl)cc3OCC(F)(F)F)cn12` [Example 138, 6-[5-chloro-3-(2,2,2-trifluoroethoxy)pyridine-2-yl]oxy-7-cyano-3-methyl-N-(4-methyl-1,1-dioxo-thian-4-yl)imidazo[1,2-a]pyridine-2-carboxamide] displayed an IC50 of 25 nM.

As for `CCOc1cccnc1Oc1ccc2nc(C(=O)N[C@H]3CCOC3)cn2c1` [Example 52, 6-[(3-ethoxy-2-pyridyl)oxy]-N-[(3S)-tetrahydrofuran-3-yl]imidazo[1,2-a]pyridine-2-carboxamide], it took 814 nM to reach half-maximal inhibition (IC50).

On to `Cc1c(C(=O)NC2(C)CCS(=O)(=O)CC2)nc2ccc(Oc3ncc(S(C)(=O)=O)cc3OCC(F)(F)F)cn12` [Example 150, 3-methyl-N-(4-methyl-1,1-dioxo-thian-4-yl)-6-[[5-methylsulfonyl-3-(2,2,2-trifluoroethoxy)-2-pyridyl]oxy]imidazo[1,2-a]pyridine-2-carboxamide], for which the IC50 was 58 nM. For the compound `CCOc1cccnc1Oc1ccc2nc(C(=O)N[C@H]3CCCC[C@@H]3O)cn2c1` [Example 22, 6-[(3-ethoxy-2-pyridyl)oxy]-N-[(1S,2S)-2-hydroxycyclohexyl]imidazo [1,2-a]pyridine-2-carboxamide], half-maximal inhibition (IC50) required 3.5 nM.

Turning to `Cc1c(C(=O)NC2(C)CCS(=O)(=O)CC2)nc2ccc(Oc3ncc(F)cc3OCC3(F)CC3)cn12` [Example 68], half-maximal inhibition (IC50) required 0.8 nM. `CCC(F)(F)c1cccnc1Oc1ccc2nc(C(=O)NC3(C)CCS(=O)(=O)CC3)cn2c1` [Example 58, 6-[[3-(1,1-difluoropropyl)-2-pyridyl]oxy]-N-(4-methyl-1,1-dioxo-thian-4-yl)imidazo[1,2-a]pyridine-2-carboxamide] returned an IC50 of 262 nM.

Consider `Cc1c(C(=O)NC2CS(=O)(=O)C2(C)C)nc2ccc(Oc3ncc(Cl)cc3OCC(F)F)cn12` (stereo not shown) [Example 80, 6-[[5-chloro-3-(2,2-difluoroethoxy)-2-pyridyl]oxy]-N-(2,2-dimethyl-1,1-dioxo-thietan-3-yl)-3-methyl-imidazo[1,2-a]pyridine-2-carboxamide], for which 3.8 nM corresponded to half-maximal inhibition (IC50). With `CC1(NC(=O)c2cn3nc(Oc4nccnc4OCC(F)(F)F)ccc3n2)CCS(=O)(=O)CC1` [Example 165, N-(4-Methyl-1,1-dioxo-thian-4-yl)-6-[3-(2,2,2-trifluoroethoxy)pyrazin-2-yl]oxy-imidazo[1,2-b]pyridazine-2-carboxamide] the figure was 901 nM; with `CC1(NC(=O)c2nc3ccc(Oc4ncc(F)cc4OCC(F)(F)F)c(Cl)n3c2Cl)CS(=O)(=O)C1` [Example 140, 3,5-dichloro-6-[[5-fluoro-3-(2,2,2-trifluoroethoxy)-2-pyridyl]oxy]-N-(3-methyl-1,1-dioxo-thietan-3-yl)imidazo[1,2-a]pyridine-2-carboxamide], 2.1 nM; with `CO[C@]1(C(F)(F)F)C[C@H](NC(=O)c2nc3ccc(Oc4ncc(F)cc4OCC(F)F)cn3c2C)C1` [Example 83, 6-[[3-(2,2-difluoroethoxy)-5-fluoro-2-pyridyl]oxy]-N-[3-methoxy-3-(trifluoromethyl)cyclobutyl]-3-methyl-imidazo[1,2-a]pyridine-2-carboxamide], 12 nM. The same measure for `CC1(CNC(=O)c2cn3cc(Oc4ncc(Cl)cc4OCC(F)(F)F)ccc3n2)CS(=O)(=O)C1` [Example 42, 6-[[5-chloro-3-(2,2,2-trifluoroethoxy)-2-pyridyl]oxy]-N-[(3-methyl-1,1-dioxo-thietan-3-yl)methyl]imidazo[1,2-a]pyridine-2-carboxamide]: 50 nM; for `Cc1c(Oc2ncc(F)cc2OCC(F)F)ccc2nc(C(=O)NC3(C)CC(F)(F)C3)cn12` [Example 28, 6-[[3-(2,2-difluoroethoxy)-5-fluoro-2-pyridyl]oxy]-N-(3,3-difluoro-1-methyl-cyclobutyl)-5-methyl-imidazo[1,2-a]pyridine-2-carboxamide]: 59 nM. The compound `CCOc1cccnc1Oc1ccc2nc(C(=O)N[C@@]3(C)CCS(=O)(=O)C3)cn2c1` [Example 35, 6-[(3-ethoxy-2-pyridyl)oxy]-N-[(3S)-3-methyl-1,1-dioxo-thiolan-3-yl]imidazo[1,2-a]pyridine-2-carboxamide] yielded an IC50 of 52 nM. With `Cc1c(C(=O)NC2(C)CCS(=O)(=O)CC2)nc2ccc(Oc3ncc(C(F)(F)F)cc3OCC(F)(F)F)cn12` [Example 92, 3-methyl-N-(4-methyl-1,1-dioxo-thian-4-yl)-6-[[3-(2,2,2-trifluoroethoxy)-5-(trifluoromethyl)-2-pyridyl]oxy]imidazo[1,2-a]pyridine-2-carboxamide] the figure was 17 nM; with `Cc1cc2nc(C(=O)NC3(C)CCS(=O)(=O)CC3)cn2nc1Oc1ncc(Cl)cc1OCC(F)F` [Example 168, 6-((5-Chloro-3-(2,2-difluoroethoxy)pyridin-2-yl)oxy)-7-methyl-N-(4-methyl-1,1-dioxidotetrahydro-2H-thiopyran-4-yl)imidazo[1,2-b]pyridazine-2-carboxamide], 1 nM; with `CCOc1cccnc1Oc1ccc2nc(C(=O)N[C@@H]3CCCC[C@@H]3O)cn2c1` [Example 37], 124 nM. Turning to `Cc1c(C(=O)NC2(C)CN(C(=O)C(F)(F)F)C2)nc2ccc(Oc3ncc(F)cc3OCC(F)F)cn12` [Example 85, 6-[[3-(2,2-difluoroethoxy)-5-fluoro-2-pyridyl]oxy]-3-methyl-N-[3-methyl-1-(2,2,2-trifluoroacetyl)azetidin-3-yl]imidazo[1,2-a]pyridine-2-carboxamide], the IC50 amounted to 1.6 nM. On to `CCOc1cccnc1Oc1ccc2nc(C(=O)NCc3ccccc3)cn2c1` [Example 53, N-benzyl-6-[(3-ethoxy-2-pyridyl)oxy]imidazo[1,2-a]pyridine-2-carboxamide], for which it took 346 nM to reach half-maximal inhibition (IC50). `CCOc1cc(Cl)cnc1Oc1ccc2nc(C(=O)NC3(C)CCS(=O)(=O)CC3)cn2c1C` [Example 8, 6-[(5-chloro-3-ethoxy-2-pyridyl)oxy]-5-methyl-N-(4-methyl-1,1-dioxo-thian-4-yl)imidazo[1,2-a]pyridine-2-carboxamide] came in with an IC50 of 1.4 nM. With `CC1(CNC(=O)c2cn3cc(Oc4ncc(Cl)cc4OCC(F)(F)F)ccc3n2)CCS(=O)(=O)CC1` [Example 50, 6-[[5-chloro-3-(2,2,2-trifluoroethoxy)-2-pyridyl]oxy]-N-[(4-methyl-1,1-dioxo-thian-4-yl)methyl]imidazo[1,2-a]pyridine-2-carboxamide] the figure was 174 nM. The same measure for `Cc1c(Oc2ncc(Cl)cc2OCC(F)(F)F)cc(F)c2nc(C(=O)NC3(C)CCS(=O)(=O)CC3)cn12` [Example 15, 6-[[5-chloro-3-(2,2,2-trifluoroethoxy)-2-pyridyl]oxy]-8-fluoro-5-methyl-N-(4-methyl-1,1-dioxo-thian-4-yl)imidazo[1,2-a]pyridine-2-carboxamide]: 11 nM; for `CC1(NC(=O)c2cn3cc(Oc4ncccc4OCC(F)(F)F)ccc3n2)CCS(=O)(=O)CC1` [Example 14, N-(4-methyl-1,1-dioxo-thian-4-yl)-6-[[3-(2,2,2-trifluoroethoxy)-2-pyridyl]oxy]imidazo[1,2-a]pyridine-2-carboxamide]: 5.3 nM; for `CCOc1cccnc1Oc1ccc2nc(C(=O)Nc3ccccc3)cn2c1` [Example 45, 6-[(3-ethoxy-2-pyridyl)oxy]-N-phenyl-imidazo[1,2-a]pyridine-2-carboxamide;2,2,2-trifluoroacetate]: 168 nM. The compound `CC1(NC(=O)c2cn3nc(Oc4ncc(Cl)cc4OCC(F)(F)F)ccc3n2)CS(=O)(=O)C1` [Example 162, 6-[[5-chloro-3-(2,2,2-trifluoroethoxy)-2-pyridyl]oxy]-N-(3-methyl-1,1-dioxo-thietan-3-yl)imidazo[1,2-b]pyridazine-2-carboxamide] displayed an IC50 of 474 nM.

The IC50 is the midpoint of a concentration-inhibition curve. A lower IC50 goes with greater potency.
